{"source": "patent US4076816A", "about": "“Antibiotic mixture” (priority 1974, dated 1978)", "assay_type_in_all_cases": "cell-based", "key": {"[1]": {"tested_on": "Salmonella typhimurium (Leo HL2)", "experiment": "serial dilution test (technique of Example 1), medium with addition of 10 g of sodium chloride per liter, MIC", "conditions": "Salmonella enterica, medium + 10 g sodium chloride per liter, compound alone", "procedure": "(§1) A fluid medium containing:\n(§2) and containing the appropriate concentrations of the compounds, or of the combinations of them was inoculated with 10^6 cells/ml organisms and incubated over night at 37° C. Minimum inhibitory concentrations (MIC) were taken as the lowest concentrations of either of the compounds alone or of a combination of both at which no visible growth occurred."}, "[2]": {"tested_on": "Escherichia coli (Leo HA2)", "experiment": "serial dilution test (technique of Example 1), medium with addition of 10 g of sodium chloride per liter, MIC", "conditions": "medium + 10 g sodium chloride per liter, compound alone", "procedure": "as §1, §2"}, "[3]": {"tested_on": "Klebsiella pneumoniae (Leo HE)", "experiment": "serial dilution test (technique of Example 1), medium with addition of 10 g of sodium chloride per liter, MIC", "conditions": "medium + 10 g sodium chloride per liter, compound alone", "procedure": "as §1, §2"}, "Haemophilus influenzae": {"tested_on": "Haemophilus influenzae", "experiment": "combined activity in vitro, serial dilutions in chocolate agar plates arranged in form of a chess board, MIC", "conditions": "compound alone", "procedure": "Combined activity of FL 1060 and trimethoprim against Haemophilus influenzae in vitro. Serial dilutions of FL 1060 and trimethoprim were performed in \"chocolate agar\"^x) plates arranged in form of a chess board. Inoculum: 3.5 μl drops containing about 10^7 cells/ml. Incubation: overnight at 36° C. ^x) Caseinhydrolysate (pancreatic) 1.3%, dextrose 0.085%, sodium chloride 0.21%, 1-cystine 0.004%, agar (Oxoid No. 1) 0.6% in distilled water, pH 7.1 after autoclaving, horse blood (defibriated) 5%, yeast extract (Difco) 1.3% (membrane filtered) added at 80° C."}, "[4]": {"tested_on": "Escherichia coli (strain Leo HA2)", "experiment": "in vitro serial dilution test, minimum inhibitory concentration", "conditions": "10^6 cells/ml, over night at 37° C, compound alone", "procedure": "The in vitro activity of FL 1060, trimethoprim, and combinations of the two compounds against Escherichia coli (strain Leo HA2) was determined in a serial dilution test. […] Minimum inhibitory concentrations (MIC) were taken as the lowest concentrations of either of the compounds alone or of a combination of both at which no visible growth occurred."}, "[5]": {"conditions": "strain IX14, overnight at 36° C"}, "[6]": {"conditions": "strain IX15, overnight at 36° C"}}, "note": "Structures can show the parent of a compound that is named as a salt.", "data": [{"compound": "COc1cc(Cc2cnc(N)nc2N)cc(OC)c1OC", "note": "[Trimethoprim, 2,4-diamino-5(3,4,5-trimethoxybenzyl)-pyrimidine]", "values": [{"measurement": "MIC", "setting": "[1]", "result": "> 100", "unit": "µg/mL"}, {"measurement": "MIC", "setting": "[2]", "result": "> 50", "unit": "µg/mL"}, {"measurement": "MIC", "setting": "[3]", "result": 1.6, "unit": "µg/mL"}, {"measurement": "MIC", "setting": "Haemophilus influenzae; strain IX5, overnight at 36° C", "result": 1, "unit": "µg/mL"}, {"measurement": "MIC", "setting": "Haemophilus influenzae; strain IX6, overnight at 36° C", "result": 3.2, "unit": "µg/mL"}, {"measurement": "MIC", "setting": "Haemophilus influenzae; [5]", "result": "> 100", "unit": "µg/mL"}, {"measurement": "MIC", "setting": "Haemophilus influenzae; [6]", "result": "> 100", "unit": "µg/mL"}, {"measurement": "MIC", "setting": "[4]", "result": 100, "unit": "µg/mL"}]}, {"compound": "CC1(C)S[C@@H]2[C@H](N=CN3CCCCCC3)C(=O)N2[C@H]1C(=O)O", "note": "[FL 1060, 6-[(hexahydro-1H-azepin-1-yl)-methyleneamino]-penicillanic acid, hydrochloride, dihydrate]", "values": [{"measurement": "MIC", "setting": "[1]", "result": "> 100", "unit": "µg/mL"}, {"measurement": "MIC", "setting": "[2]", "result": 50, "unit": "µg/mL"}, {"measurement": "MIC", "setting": "[3]", "result": 0.5, "unit": "µg/mL"}, {"measurement": "MIC", "setting": "Haemophilus influenzae; strain IX5, overnight at 36° C", "result": "> 100", "unit": "µg/mL"}, {"measurement": "MIC", "setting": "Haemophilus influenzae; strain IX6, overnight at 36° C", "result": "> 100", "unit": "µg/mL"}, {"measurement": "MIC", "setting": "Haemophilus influenzae; [5]", "result": "> 100", "unit": "µg/mL"}, {"measurement": "MIC", "setting": "Haemophilus influenzae; [6]", "result": "> 100", "unit": "µg/mL"}, {"measurement": "MIC", "setting": "[4]", "result": 0.016, "unit": "µg/mL"}]}]}
